Test results from the supplement of paper PMC9663587.

Key:
Test in all cases: area over the GR curve, 72 h; higher = more effect;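 also: Dye Drop or Deep Dye Drop imaging of viable cells in 384-well plates (Hoechst nuclei, LIVE/DEAD dye), nine half-log doses, GR normalized to DMSO controls and time-zero plates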
HTERT_HME1 = system: HTERT_HME1
HCC1419 = system: HCC1419
HCC1806 = system: HCC1806
SUM149 = system: SUM149
CAMA1 = system: CAMA1
MCF10A = system: MCF10A
SUM159 = system: SUM159
SUM44PE = system: SUM44PE
MGH312 = system: MGH312
184A1 = system: 184A1
SUM185PE = system: SUM185PE
SUM1315 = system: SUM1315

| Structure (SMILES) | area over the GR curve (HTERT_HME1) | area over the GR curve (HCC1419) | area over the GR curve (HCC1806) | area over the GR curve (SUM149) | area over the GR curve (CAMA1) | area over the GR curve (MCF10A) | area over the GR curve (SUM159) | area over the GR curve (SUM44PE) | area over the GR curve (MGH312) | area over the GR curve (184A1) | area over the GR curve (SUM185PE) | area over the GR curve (SUM1315) | area over the GR curve (HTERT_HME1; main component drawn) | area over the GR curve (HCC1419; main component drawn) | area over the GR curve (HCC1806; main component drawn) | area over the GR curve (SUM149; main component drawn) | area over the GR curve (CAMA1; main component drawn) | area over the GR curve (MCF10A; main component drawn) | area over the GR curve (SUM159; main component drawn) | area over the GR curve (SUM1315; main component drawn) |
| --- | --- | --- | --- | --- | --- | --- | --- | --- | --- | --- | --- | --- | --- | --- | --- | --- | --- | --- | --- | --- |
| CNc1nc(-c2ccc3c(N)n[nH]c3c2)cc(N2C[C@@H](C(=O)NC3CCCCC3)CC[C@H]2C)n1 (max 10 µM) | 0.128 GR | 0.245 GR | 0.0151 GR | 0.0419 GR | -0.0192 GR | -0.0162 GR | 0.106 GR | 0.165 GR | 0.718 GR | 0.135 GR | 0.224 GR | 0.291 GR |  |  |  |  |  |  |  |  |
| CCOc1cc2ncc(C#N)c(Nc3ccc(OCc4ccccn4)c(Cl)c3)c2cc1NC(=O)/C=C/CN(C)C [Neratinib/HKI272] (max 3.162 µM) | 0.265 GR | 0.993 GR | 0.191 GR | 0.358 GR | 0.0703 GR | 0.344 GR | 0.101 GR | 0.568 GR | 0.373 GR | 0.421 GR | 0.255 GR | 0.364 GR |  |  |  |  |  |  |  |  |
| Cc1cc(C(C)Nc2ccccc2)c2nc(N3CCOCC3)cc(=O)n2c1 (stereo not given) [TGX221] (max 10 µM) | -0.0608 GR | -0.0488 GR | -0.02 GR | -0.0254 GR | 0.0019 GR | 0.005 GR | -0.0235 GR | -0.155 GR | 0.472 GR | 0.0024 GR | 0.163 GR | 0.136 GR |  |  |  |  |  |  |  |  |
| CN(C)C/C=C/C(=O)Nc1ccc(C(=O)Nc2cccc(Nc3cc(-c4c[nH]c5ccccc45)ncn3)c2)cc1 [THZ-P1-2] (max 10 µM) | 0.107 GR | 0.019 GR | 0.199 GR | 0.117 GR | 0.309 GR | 0.13 GR | 0.127 GR | 0.619 GR | 0.127 GR | 0.351 GR | 0.14 GR | 0.0029 GR |  |  |  |  |  |  |  |  |
| Cc1c(N)nc([C@H](CC(N)=O)NC[C@H](N)C(N)=O)nc1C(=O)N[C@H](C(=O)N[C@H](C)[C@@H](O)[C@H](C)C(=O)N[C@H](C(=O)NCCc1nc(-c2nc(C(=O)NCCC[S+](C)C)cs2)cs1)[C@@H](C)O)[C@@H](OC1OC(CO)C(O)C(O)C1OC1OC(CO)C(O)C(OC(N)=O)C1O)c1cnc[nH]1 (stereo not given in full) [Bleomycin] (max 10 µM) |  |  |  |  |  |  |  |  |  |  |  |  | 0.48 GR | 0.141 GR | 0.117 GR | 0.683 GR | 0.274 GR | 0.449 GR | 0.463 GR | 0.41 GR |
| NC1(C(=O)N[C@@H](CCO)c2ccc(Cl)cc2)CCN(c2nc[nH]c3nccc2-3)CC1 [AZD5363] (max 10 µM) | 0.188 GR | 0.189 GR | 0.0705 GR | 0.109 GR | 0.583 GR | 0.0283 GR | 0.177 GR | 0.596 GR | 1.44 GR | 0.122 GR | 0.267 GR | 0.144 GR |  |  |  |  |  |  |  |  |
| COc1cc2nccc(Oc3ccc(NC(=O)C4(C(=O)Nc5ccc(F)cc5)CC4)cc3)c2cc1OC [Cabozantinib] (max 10 µM) | 0.0866 GR | -0.0617 GR | -0.021 GR | 0.0344 GR | 0.0239 GR | -0.0114 GR | 0.059 GR | 0.0196 GR | -0.0125 GR | 0.0128 GR | -0.023 GR | 0.105 GR |  |  |  |  |  |  |  |  |
| CN1CCN(CCOc2cc(OC3CCOCC3)c3c(Nc4c(Cl)ccc5c4OCO5)ncnc3c2)CC1 [Saracatinib/AZD0530] (max 10 µM) | -0.0453 GR | 0.264 GR | 0.233 GR | 0.132 GR | 0.0262 GR | 0.125 GR | 0.0365 GR | 0.112 GR | 0.537 GR | 0.0722 GR | 0.279 GR | 0.244 GR |  |  |  |  |  |  |  |  |
| CN(C)C/C=C/C(=O)Nc1ccc(C(=O)N2CCC[C@@H](Nc3ncc(Cl)c(-c4c[nH]c5ccccc45)n3)C2)cc1 [THZ531] (max 1 µM) | 0.182 GR | 0.21 GR | 0.134 GR | 0.154 GR | 0.241 GR | 0.162 GR | 0.0413 GR | 0.177 GR | 0.636 GR | 0.214 GR | 0.231 GR | 0.148 GR |  |  |  |  |  |  |  |  |
| O=C(CCCCCCC(=O)Nc1ccccc1)NO [Vorinostat] (max 10 µM) | 0.153 GR | 0.148 GR | 0.24 GR | 0.225 GR | 0.383 GR | 0.168 GR | 0.148 GR | 0.181 GR | 0.37 GR | 0.188 GR | 0.0835 GR | 0.166 GR |  |  |  |  |  |  |  |  |
| CO[C@H]1C[C@@H]2CC[C@@H](C)[C@@](O)(O2)C(=O)C(=O)N2CCCC[C@H]2C(=O)O[C@H]([C@H](C)C[C@@H]2CC[C@@H](OCCO)[C@H](OC)C2)CC(=O)[C@H](C)/C=C(\C)[C@@H](O)[C@@H](OC)C(=O)[C@H](C)C[C@H](C)/C=C/C=C/C=C/1C [Everolimus] (max 10 µM) | 0.371 GR | 0.724 GR | 0.197 GR | 0.201 GR | 0.767 GR | 0.113 GR | 0.108 GR | 0.734 GR | 0.798 GR | 0.452 GR | 0.2 GR | 0.454 GR |  |  |  |  |  |  |  |  |
| CN(C)C(=O)c1cc2cnc(Nc3ccc(N4CCNCC4)cn3)nc2n1C1CCCC1 [LEE011/Ribociclib] (max 10 µM) | 0.365 GR | 0.293 GR | 0.141 GR | 0.188 GR | 0.651 GR | 0.235 GR | 0.244 GR | 0.357 GR | -0.0019 GR | 0.449 GR | 0.101 GR | 0.35 GR |  |  |  |  |  |  |  |  |
